ChEMBL document CHEMBL4017461, “Investigation of the inhibitory mechanism of apomorphine against MDM2-p53 interaction” (Bioorg Med Chem Lett, 2017)
Activity calls are given as the source filed them. The rule behind the calls is not given here.

What was measured:
[1] = target: T1, E3 ubiquitin-protein ligase Mdm2 (Homo sapiens, UniProt Q00987); assay: Inhibition of biotin-labelled L-p53 binding to L-MDM2 (25 to 109 residues) (unknown origin) by FAM labeled P4 peptide based fluorescence polarization assay
Target sequence in this assay (Q00987 whole entry, the tested form may be a part): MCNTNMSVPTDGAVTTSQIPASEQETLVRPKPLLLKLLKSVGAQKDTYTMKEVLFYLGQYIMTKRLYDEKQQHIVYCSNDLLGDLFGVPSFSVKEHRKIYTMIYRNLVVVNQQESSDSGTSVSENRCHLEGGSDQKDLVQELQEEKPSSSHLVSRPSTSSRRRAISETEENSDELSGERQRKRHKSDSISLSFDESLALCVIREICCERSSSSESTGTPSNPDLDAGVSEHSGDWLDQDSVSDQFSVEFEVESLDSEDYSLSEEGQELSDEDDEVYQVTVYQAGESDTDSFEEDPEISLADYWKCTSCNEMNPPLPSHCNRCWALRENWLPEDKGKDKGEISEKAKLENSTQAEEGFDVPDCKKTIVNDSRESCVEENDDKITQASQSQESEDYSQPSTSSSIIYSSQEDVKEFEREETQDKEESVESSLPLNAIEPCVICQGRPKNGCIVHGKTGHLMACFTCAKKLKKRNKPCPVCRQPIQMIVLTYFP

[2] = target: T1, E3 ubiquitin-protein ligase Mdm2; assay: Inhibition of biotin-labelled p53 binding to MDM2 (25 to 109 residues) (unknown origin) by surface plasmon resonance method
[3] = target: T1, E3 ubiquitin-protein ligase Mdm2; assay: Inhibition of biotin-labelled P4 peptide binding to MDM2 (25 to 109 residues) (unknown origin) by surface plasmon resonance method
Target sequence in this assay (Q00987 whole entry, the tested form may be a part): as above

[4] = Inhibition of biotin-labelled P4 peptide binding to MDM2 Cys(Me)77 mutant (unknown origin) by surface plasmon resonance method; set-up: species or system Homo sapiens
[5] = Inhibition of biotin-labelled P4 peptide binding to MDM2 Ser77 mutant (unknown origin) by surface plasmon resonance method; set-up: species or system Homo sapiens
[6] = target: T1, E3 ubiquitin-protein ligase Mdm2; assay: Inhibition of biotin-labelled D-p53 binding to D-MDM2 (25 to 109 residues) (unknown origin) by FAM labeled P4 peptide based fluorescence polarization assay
Target sequence in this assay (Q00987 whole entry, looked up, the tested form may be a part): as the sequence (Q00987 whole entry, the tested form may be a part) above

[7] = Inhibition of biotin-labelled p53 binding to MDM2 Ser77 mutant (unknown origin) by surface plasmon resonance method; set-up: species or system Homo sapiens
[8] = Drug level in 1:1 PBS/CH3CN mixture treated with R-(-)-apomorphine at 10 mM measured after 24 hrs by HPLC method
Homo sapiens = species: Homo sapiens; assay: Binding affinity to MDM2 Cys(Me)77 mutant (unknown origin) assessed as adduct formation at 10 uM after 10 mins by MALDI-TOF-MS analysis
[9] = target: T1, E3 ubiquitin-protein ligase Mdm2; assay: Binding affinity to MDM2 (25 to 109 residues) (unknown origin) assessed as adduct formation at 10 uM after 10 mins by MALDI-TOF MS analysis
Target sequence in this assay (Q00987 whole entry, looked up, the tested form may be a part): as the sequence (Q00987 whole entry, the tested form may be a part) above

Row | SMILES | IC50 [1] | IC50 [2] | inhibition [2] | IC50 [3] | IC50 [4] | IC50 [5] | further results
1 | CN1CCc2cccc3c2[C@@H]1Cc1ccc(O)c(O)c1-3 [(S)APOMORPHINE] | 0.175 µM |  |  |  |  |  | 
2 | Oc1ccccc1O [CATECHOL] |  | > 100 µM |  |  |  |  | 
3 | CN1CCc2cccc3c2[C@H]1Cc1ccc(O)c(O)c1-3 [APOMORPHINE] | 0.215 µM |  | inactive | > 30 µM | > 30 µM | > 30 µM | IC50 [6]: 0.195 µM
4 | O=C1C=CC(=O)C=C1 [BENZOQUINONE] |  | 13.9 µM |  |  |  |  | IC50 [7]: > 100 µM
5 | CN1CCc2cccc3c4c(cc1c23)C=CC(=O)C4=O |  |  | Active | 1.7 µM | > 30 µM | > 30 µM | Drug metabolism [8]: Metabolite detected; Activity (Homo sapiens): Active; Activity [9]: inactive
